Entries after “also recorded” stand apart in the source; their conditions may differ.
Experiments:
HSA = HSA (Homo sapiens, UniProt P02768); test: HSA binding (FPLC, GFAAS, ESI-MS); settings: ESI mass-spectrometric analysis
SKOV3 cells [1] = test: Annexin V/sytox green apoptosis dead cell assay; type: cell-based, human; settings: 72 h of treatment
Excerpt: Therapeutic nanoparticles (NPs) have been widely investigated for their potential to enhance cancer treatment. The chemical structure of 2 bears both hydrophilic (1-D-MT) and hydrophobic (hexadecyl isocyanate) axial ligands, conferring amphiphilic character to the molecule. In some cases, the hexadecyl isocyanate axial ligand facilitate non-covalent binding to human serum albumin, protecting the Pt(IV) center from premature reduction in blood. In the presence of the biodegradable block copolymer, poly(lactic-co-glycolic acid)-polyethylene glycol (PLGA-PEG), 2 readily self-assembles into NPs suitable for preclinical studies (FIG. 5A). […] Having obtained the nanoparticles, the ability of 2 and its NP to induce apoptosis was investigated. Translocation of phosphatidylserine residues to the exterior is a characteristic of apoptotic cells, which have a compromised cell membrane, and can be detected by annexin V. Using a dual staining annexin V/sytox green apoptosis dead cell assay, we examined the apoptotic behavior of SKOV3 cells after 72 h of treatment with 2 and its NP by flow cytometry.

[2] = Whole human blood stability test; type: in vitro ADME
Procedure: To a volume of 0.8 mL fresh whole human blood (Innovative Research, Novi, Mich.) was added 24 μL of a DMSO solution of 2 (2.0 mM), resulting in a final concentration of 60 μM. After 5 sec of vortexing, a 100 μL aliquot of the blood sample (0 h time point) was immediately transferred to a new tube containing 300 μL of octanol, and the remaining […] of blood was incubated at 37° C. with rotation (1100 rpm). The blood-octanol mixture was vortexed for 2 min at R.T. and then centrifuged to separate the phases. The isolated octanol extract was diluted with methanol for GFAAS measurement. At varying time points (1 h, 2 h, 3 h, 5 h, and 7 h), a 100 μL aliquot was removed from the incubating blood and extracted as described above. For the 7 h sample, analytical HPLC was employed to confirm the integrity of the Pt compound. A standard of 2 and an octanol extract from blank whole human blood were used for comparison.

[3] = Tolerability/toxicity in mice; type: in vivo
IDO = IDO (Homo sapiens, UniProt P14902); test: Cellular determination of kynurenine by HPLC in medium of SKOV3 cells; settings: 2 10 μM vs (D)-1-MT 1 mM
SKOV3 cells [4] = test: Subcellular distribution of platinum (GFAAS); type: cell-based, human; settings: SKOV3, 5 μM, 17 h
Procedure: To gain further insight into the mode of action was studied of 1 and 2, the subcellular distribution of platinum. SKOV3 cells were incubated with the drug candidates (5 μM) for 17 h, using cisplatin as a control. The platinum content was measured by using GFAAS.
To measure cellular uptake, ca. 20 million SKOV3 cells were treated with 5 μM compounds 1, 2 and cisplatin at 37° C. for 17 h. The media were removed, and the cells were washed with PBS solution (1 mL×3), harvested, and centrifuged. The cell pellet was suspended in an appropriate volume of PBS to obtain a homogeneous suspension (100 μL). The nuclear and cytoplasmic extraction kit (NE-PER, Thermo Scientific Inc.) was used to extract the separate cytoplasmic, nuclear, and pelleted fractions. The fractions were mineralized with 70% HNO3 and then heated at 95° C. for 10 min. The platinum content was analyzed by GF-AAS. Cellular platinum levels were expressed as pmol of Pt per million cells. Results are presented as the mean of three determinations for each data point.

Sequence of IDO (P14902 whole entry): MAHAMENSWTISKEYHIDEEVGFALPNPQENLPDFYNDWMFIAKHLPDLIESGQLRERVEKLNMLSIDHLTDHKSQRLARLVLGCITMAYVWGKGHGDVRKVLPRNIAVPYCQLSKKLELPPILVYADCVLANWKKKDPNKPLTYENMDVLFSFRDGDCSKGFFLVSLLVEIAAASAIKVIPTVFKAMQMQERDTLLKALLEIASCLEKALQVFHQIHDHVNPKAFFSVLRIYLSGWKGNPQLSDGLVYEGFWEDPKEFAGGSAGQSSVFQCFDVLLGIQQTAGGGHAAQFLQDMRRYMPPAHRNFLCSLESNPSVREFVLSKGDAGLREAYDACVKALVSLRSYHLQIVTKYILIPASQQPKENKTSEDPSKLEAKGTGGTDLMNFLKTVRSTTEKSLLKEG
Sequence of HSA (P02768 25-609): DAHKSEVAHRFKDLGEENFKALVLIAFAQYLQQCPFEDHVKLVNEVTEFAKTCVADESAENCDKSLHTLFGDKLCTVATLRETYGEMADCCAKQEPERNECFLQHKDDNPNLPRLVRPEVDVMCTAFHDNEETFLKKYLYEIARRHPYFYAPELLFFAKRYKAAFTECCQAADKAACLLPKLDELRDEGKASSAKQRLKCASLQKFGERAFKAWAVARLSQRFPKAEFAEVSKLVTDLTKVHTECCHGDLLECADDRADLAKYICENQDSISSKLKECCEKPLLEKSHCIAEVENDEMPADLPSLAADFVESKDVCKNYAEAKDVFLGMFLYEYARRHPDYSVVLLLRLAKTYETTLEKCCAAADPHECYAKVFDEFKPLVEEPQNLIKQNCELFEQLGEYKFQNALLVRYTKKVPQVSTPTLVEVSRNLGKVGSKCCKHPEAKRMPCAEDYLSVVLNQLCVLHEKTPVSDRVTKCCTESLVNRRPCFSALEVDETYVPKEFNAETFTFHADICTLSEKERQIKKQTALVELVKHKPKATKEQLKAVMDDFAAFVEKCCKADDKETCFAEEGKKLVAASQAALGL

**Q.** For `CCCCCCCCCCCCCCCCNC(=O)[O][Pt]([NH2])([NH2])([Cl])([Cl])[O]C(=O)CCC(=O)NCCOC(=O)[C@H](N)Cc1cn(C)c2ccccc12` (mixture of isomers) [Compound 2, cis,cis,trans-[Pt(NH3)2Cl2(O2CC2H4OCNHC2H4O2C-D-1MT)(O2CNHC16H33)]], which “binding to HSA” value (HSA) is on record?
**A.** binds HSA

**Q.** What about the induction of apoptosis (SKOV3 cells [1]) of the same compound?
**A.** induced large populations of SKOV3 cells to undergo apoptosis

**Q.** What about the half-life at 60 µM ([2]; fresh whole human blood, whole human blood, 60 μM, 37° C., read-out: t1/2 in human blood (converted)) of the same compound?
**A.** 132 min

**Q.** What about the stability in blood ([2]; summary statement) of the same compound?
**A.** stable in blood

**Q.** What about the “toxicity / tolerance in mice” value [3] of the same compound?
**A.** low toxicity in mice; also recorded: mice are tolerant

**Q.** What about the “block of kynurenine release in the medium in comparison to (D)-1-MT” value (IDO) of the same compound?
**A.** by a factor of three

**Q.** And the “platinum content within the nucleus” value (SKOV3 cells [4])?
**A.** comparable to that of cisplatin
